Laboratory results published in US20110245104A1, “Method for screening the sensitizing properties of chemical compounds” (priority 2010, published 2011).

What was measured:
keratins = experiment: Protein cross-linking by bidentate haptens (SDS gels of blebs); format: cell-based, human; settings: bidentate hapten
Excerpt: In SDS-PAGE experiments it was shown that thiol-, amine-, and arginine-reactive sensitizers give rise to blebs that contain the same proteins. […] It was also shown that the sensitizing compounds also modify other proteins and that these proteins are released in blebs, as visualized by fluorescent bands on SDS-gels.

[1] = tested on: anti-nuclear antibodies (ANA); experiment: Anti-nuclear antibodies (ANA) in sera of mice topically exposed to haptens; format: in vivo; settings: topical exposure
human skin excerpts = experiment: Labeling of human skin excerpts by caged haptens
Excerpt: The first step is that the molecules come into contact with the skin (the stratum corneum). Many of the reactive molecules react in the stratum corneum, something that can be seen in experiments with human skin excerpts and the caged (mBBr and dBBr) haptens. However, a significant proportion of the molecules penetrate further down to the suprabasal layers of the epidermis but also the follicular pathway is of importance for bringing xenobiotics into the skin. It is likely that the penetration is due both to the acidic pH of the stratum corneum (the molecules react more slowly when the pH is low), but also because many of the available groups have reacted. In the suprabasal layers, the haptens have a hard time penetrating the cells, as the cornification of the cells creates a thick, relatively impermeable envelope around the suprabasal cells. Consequently, the haptens penetrate down to the basal layer. Here, the cell membrane is much thinner and more fluidic and the molecules can thus enter the basal cells.

[2] = tested on: serum amyloid P component (SAP); experiment: Serum amyloid P component (SAP) in sera of mice exposed to sensitizers; format: in vivo; settings: sera of mice exposed to sensitizer

`Cc1c(CBr)n2c(CBr)c(C)c(=O)n2c1=O` [dBBr, dibromobimane] was tested, and the Cross-links between keratins (keratins) was “cause cross-links”, the “Level of anti-nuclear antibodies (ANA) in sera” value [1] was “increased levels” and the “Labeling of cells in the basal layer” value (human skin excerpts) was “cells in the basal layer are labeled”. The “Level of serum amyloid P component (SAP)” value [2] was “increased levels”.
